In the kinase profiling compilation of Christmann-Franck et al. (2016):
Each block holds one compound with its values, some of them ahead of it.

What was measured:
Test in all cases: KINOMEscan competition binding
Conditions in all cases: compound 10.0 µM
[1] = system: ABL1 (human), P00519 [F317L]
[2] = system: ABL1 (human), P00519 [Y253F]
ANKK1 (human) = ANKK1 (human) (UniProt Q8NFD2)
BRSK1 (human) = BRSK1 (human) (UniProt Q8TDC3)
BTK (human) = BTK (human) (UniProt Q06187)
CAMK1G (human) = CAMK1G (human) (UniProt Q96NX5)
CDC42BPA (human) = CDC42BPA (human) (UniProt Q5VT25)
CDK11B (human) = CDK11B (human) (UniProt P21127)
Sequence of CDK11B (human) (P21127 whole entry, looked up): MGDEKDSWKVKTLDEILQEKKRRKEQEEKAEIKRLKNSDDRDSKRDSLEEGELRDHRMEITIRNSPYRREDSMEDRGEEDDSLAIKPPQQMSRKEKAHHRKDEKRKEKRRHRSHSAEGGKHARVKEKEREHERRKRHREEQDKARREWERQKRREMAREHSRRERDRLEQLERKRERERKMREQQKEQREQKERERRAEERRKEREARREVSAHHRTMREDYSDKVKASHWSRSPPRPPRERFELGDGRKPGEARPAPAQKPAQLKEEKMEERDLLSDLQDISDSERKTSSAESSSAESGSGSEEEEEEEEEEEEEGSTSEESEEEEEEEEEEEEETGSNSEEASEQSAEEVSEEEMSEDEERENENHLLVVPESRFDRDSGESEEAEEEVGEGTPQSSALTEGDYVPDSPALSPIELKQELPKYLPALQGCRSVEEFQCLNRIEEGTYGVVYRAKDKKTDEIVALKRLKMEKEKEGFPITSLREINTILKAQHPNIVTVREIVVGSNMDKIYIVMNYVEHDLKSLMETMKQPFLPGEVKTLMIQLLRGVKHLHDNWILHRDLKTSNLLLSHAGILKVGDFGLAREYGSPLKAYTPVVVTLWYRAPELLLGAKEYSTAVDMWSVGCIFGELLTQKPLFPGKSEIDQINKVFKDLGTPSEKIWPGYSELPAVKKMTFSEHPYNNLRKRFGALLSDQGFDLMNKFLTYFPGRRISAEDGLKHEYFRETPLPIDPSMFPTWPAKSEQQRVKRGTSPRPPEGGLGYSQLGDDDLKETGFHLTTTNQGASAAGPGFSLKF

CSF1R (human) = CSF1R (human) (UniProt P07333)
[3] = system: EGFR (human), P00533 [L858R]
EIF2AK2 (human) = EIF2AK2 (human) (UniProt P19525)
Sequence of EIF2AK2 (human) (P19525 whole entry, looked up): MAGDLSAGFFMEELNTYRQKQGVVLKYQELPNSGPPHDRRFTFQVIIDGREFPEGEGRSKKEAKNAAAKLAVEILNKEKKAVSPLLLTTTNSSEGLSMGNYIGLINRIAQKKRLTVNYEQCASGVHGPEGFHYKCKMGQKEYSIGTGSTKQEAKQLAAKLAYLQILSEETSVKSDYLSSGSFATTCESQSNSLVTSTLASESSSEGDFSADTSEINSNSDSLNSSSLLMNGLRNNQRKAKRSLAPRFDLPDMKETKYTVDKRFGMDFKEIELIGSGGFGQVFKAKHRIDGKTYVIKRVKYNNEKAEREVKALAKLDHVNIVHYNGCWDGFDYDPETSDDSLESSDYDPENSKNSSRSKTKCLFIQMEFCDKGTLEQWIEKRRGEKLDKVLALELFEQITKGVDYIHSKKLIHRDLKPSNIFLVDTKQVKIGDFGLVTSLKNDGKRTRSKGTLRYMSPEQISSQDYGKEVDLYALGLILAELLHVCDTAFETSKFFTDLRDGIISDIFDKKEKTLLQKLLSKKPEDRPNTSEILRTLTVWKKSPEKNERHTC

EPHA4 (human) = EPHA4 (human) (UniProt P54764)
EPHB3 (human) = EPHB3 (human) (UniProt P54753)
FER (human) = FER (human) (UniProt P16591)
[4] = system: FGFR3 (human), P22607 [G697C]
FLT1 (human) = FLT1 (human) (UniProt P17948)
FLT4 (human) = FLT4 (human) (UniProt P35916)
Sequence of FLT4 (human) (P35916 whole entry, looked up): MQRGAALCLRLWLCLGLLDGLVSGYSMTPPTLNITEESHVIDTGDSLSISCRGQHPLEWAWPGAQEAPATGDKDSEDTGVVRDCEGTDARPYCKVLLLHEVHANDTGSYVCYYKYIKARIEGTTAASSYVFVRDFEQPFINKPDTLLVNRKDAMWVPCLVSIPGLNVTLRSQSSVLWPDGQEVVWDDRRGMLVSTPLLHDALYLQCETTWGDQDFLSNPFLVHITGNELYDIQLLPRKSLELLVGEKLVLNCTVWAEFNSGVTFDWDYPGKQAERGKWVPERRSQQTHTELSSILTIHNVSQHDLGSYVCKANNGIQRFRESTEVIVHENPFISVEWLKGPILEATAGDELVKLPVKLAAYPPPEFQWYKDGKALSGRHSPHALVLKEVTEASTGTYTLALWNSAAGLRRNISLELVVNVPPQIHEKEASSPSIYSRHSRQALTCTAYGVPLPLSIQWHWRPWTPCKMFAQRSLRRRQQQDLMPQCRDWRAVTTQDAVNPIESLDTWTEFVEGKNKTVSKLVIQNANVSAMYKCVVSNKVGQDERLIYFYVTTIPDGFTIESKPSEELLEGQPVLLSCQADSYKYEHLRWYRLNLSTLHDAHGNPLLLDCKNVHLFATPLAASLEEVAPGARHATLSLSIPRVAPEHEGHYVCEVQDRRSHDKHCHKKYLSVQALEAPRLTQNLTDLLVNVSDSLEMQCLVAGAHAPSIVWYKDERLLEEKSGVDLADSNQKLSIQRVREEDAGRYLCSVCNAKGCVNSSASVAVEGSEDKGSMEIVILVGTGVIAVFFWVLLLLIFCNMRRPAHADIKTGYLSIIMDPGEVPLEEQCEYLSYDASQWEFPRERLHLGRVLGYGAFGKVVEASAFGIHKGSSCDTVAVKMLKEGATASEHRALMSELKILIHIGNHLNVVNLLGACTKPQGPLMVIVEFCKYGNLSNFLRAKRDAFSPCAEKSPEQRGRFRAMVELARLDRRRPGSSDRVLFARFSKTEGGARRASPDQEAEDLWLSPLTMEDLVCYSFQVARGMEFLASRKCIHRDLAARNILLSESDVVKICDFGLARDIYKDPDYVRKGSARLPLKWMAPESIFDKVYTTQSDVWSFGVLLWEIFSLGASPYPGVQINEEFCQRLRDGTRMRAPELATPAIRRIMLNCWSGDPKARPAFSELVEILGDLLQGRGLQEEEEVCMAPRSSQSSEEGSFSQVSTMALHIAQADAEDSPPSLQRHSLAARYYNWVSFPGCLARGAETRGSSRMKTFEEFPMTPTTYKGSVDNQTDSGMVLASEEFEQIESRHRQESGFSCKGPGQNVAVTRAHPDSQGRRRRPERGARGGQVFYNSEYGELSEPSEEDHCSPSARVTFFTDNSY

FRK (human) = FRK (human) (UniProt P42685)
FYN (human) = FYN (human) (UniProt P06241)
Sequence of FYN (human) (P06241 whole entry, looked up): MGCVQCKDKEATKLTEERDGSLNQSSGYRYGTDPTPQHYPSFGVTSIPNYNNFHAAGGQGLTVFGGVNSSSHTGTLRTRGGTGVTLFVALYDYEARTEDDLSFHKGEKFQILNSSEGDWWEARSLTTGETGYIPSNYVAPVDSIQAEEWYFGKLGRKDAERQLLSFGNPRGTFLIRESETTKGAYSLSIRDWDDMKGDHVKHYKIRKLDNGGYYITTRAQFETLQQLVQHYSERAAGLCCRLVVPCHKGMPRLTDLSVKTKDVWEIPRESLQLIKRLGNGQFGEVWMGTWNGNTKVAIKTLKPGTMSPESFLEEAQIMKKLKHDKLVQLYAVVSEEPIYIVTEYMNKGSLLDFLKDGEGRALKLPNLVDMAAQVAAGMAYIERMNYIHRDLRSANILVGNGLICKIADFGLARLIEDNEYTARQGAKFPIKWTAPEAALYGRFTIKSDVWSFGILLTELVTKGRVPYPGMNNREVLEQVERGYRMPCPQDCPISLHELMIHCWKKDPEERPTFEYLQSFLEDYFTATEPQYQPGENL

HCK (human) = HCK (human) (UniProt P08631)
IKBKE (human) = IKBKE (human) (UniProt Q14164)
[5] = molecular target: JAK2 JH1 catalytic (human) (UniProt O60674)
KDR (human) = KDR (human) (UniProt P35968)
LATS2 (human) = LATS2 (human) (UniProt Q9NRM7)
MAP3K11 (human) = MAP3K11 (human) (UniProt Q16584)
MAPK13 (human) = MAPK13 (human) (UniProt O15264)
MAPK6 (human) = MAPK6 (human) (UniProt Q16659)
Sequence of MAPK6 (human) (Q16659 whole entry, looked up): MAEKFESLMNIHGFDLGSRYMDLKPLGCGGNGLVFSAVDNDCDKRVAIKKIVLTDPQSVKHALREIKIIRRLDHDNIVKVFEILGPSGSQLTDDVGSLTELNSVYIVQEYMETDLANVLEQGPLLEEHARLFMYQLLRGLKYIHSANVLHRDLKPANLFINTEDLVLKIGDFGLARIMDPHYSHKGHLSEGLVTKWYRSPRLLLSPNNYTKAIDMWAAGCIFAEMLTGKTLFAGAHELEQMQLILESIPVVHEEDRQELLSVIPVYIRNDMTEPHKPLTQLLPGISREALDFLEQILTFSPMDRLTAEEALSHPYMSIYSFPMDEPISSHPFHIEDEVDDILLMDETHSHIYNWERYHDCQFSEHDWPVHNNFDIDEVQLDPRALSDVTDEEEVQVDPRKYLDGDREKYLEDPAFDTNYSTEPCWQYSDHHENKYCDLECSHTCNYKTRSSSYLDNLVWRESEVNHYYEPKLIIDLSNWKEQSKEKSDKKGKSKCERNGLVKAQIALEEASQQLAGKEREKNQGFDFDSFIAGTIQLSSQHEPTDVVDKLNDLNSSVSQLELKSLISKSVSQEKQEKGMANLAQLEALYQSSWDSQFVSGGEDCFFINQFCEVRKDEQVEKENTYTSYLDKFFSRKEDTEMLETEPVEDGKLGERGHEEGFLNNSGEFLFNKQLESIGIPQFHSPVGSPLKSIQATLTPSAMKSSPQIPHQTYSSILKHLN

MAPK9 (human) = MAPK9 (human) (UniProt P45984)
NEK5 (human) = NEK5 (human) (UniProt Q6P3R8)
NEK6 (human) = NEK6 (human) (UniProt Q9HC98)
Sequence of NEK6 (human) (Q9HC98 whole entry, looked up): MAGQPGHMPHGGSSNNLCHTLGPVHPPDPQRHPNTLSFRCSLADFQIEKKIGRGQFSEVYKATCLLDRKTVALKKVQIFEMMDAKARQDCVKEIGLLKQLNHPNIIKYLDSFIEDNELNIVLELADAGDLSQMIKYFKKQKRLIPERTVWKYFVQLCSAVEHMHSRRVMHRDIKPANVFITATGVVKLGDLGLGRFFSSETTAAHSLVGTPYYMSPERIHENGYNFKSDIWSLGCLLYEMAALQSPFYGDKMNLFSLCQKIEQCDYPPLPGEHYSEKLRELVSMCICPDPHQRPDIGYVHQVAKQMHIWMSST

NLK (human) = NLK (human) (UniProt Q9UBE8)
PAK6 (human) = PAK6 (human) (UniProt Q9NQU5)
PAK7 (human) = PAK7 (human) (UniProt Q9P286)
PHKG1 (human) = PHKG1 (human) (UniProt Q16816)
PKN1 (human) = PKN1 (human) (UniProt Q16512)
PRKACA (human) = PRKACA (human) (UniProt P17612)
PRKG2 (human) = PRKG2 (human) (UniProt Q13237)
PTK2B (human) = PTK2B (human) (UniProt Q14289)
SRPK1 (human) = SRPK1 (human) (UniProt Q96SB4)
TGFBR1 (human) = TGFBR1 (human) (UniProt P36897)
ULK1 (human) = ULK1 (human) (UniProt O75385)
ZAP70 (human) = ZAP70 (human) (UniProt P43403)

Sequence of BTK (human) (Q06187 whole entry, looked up): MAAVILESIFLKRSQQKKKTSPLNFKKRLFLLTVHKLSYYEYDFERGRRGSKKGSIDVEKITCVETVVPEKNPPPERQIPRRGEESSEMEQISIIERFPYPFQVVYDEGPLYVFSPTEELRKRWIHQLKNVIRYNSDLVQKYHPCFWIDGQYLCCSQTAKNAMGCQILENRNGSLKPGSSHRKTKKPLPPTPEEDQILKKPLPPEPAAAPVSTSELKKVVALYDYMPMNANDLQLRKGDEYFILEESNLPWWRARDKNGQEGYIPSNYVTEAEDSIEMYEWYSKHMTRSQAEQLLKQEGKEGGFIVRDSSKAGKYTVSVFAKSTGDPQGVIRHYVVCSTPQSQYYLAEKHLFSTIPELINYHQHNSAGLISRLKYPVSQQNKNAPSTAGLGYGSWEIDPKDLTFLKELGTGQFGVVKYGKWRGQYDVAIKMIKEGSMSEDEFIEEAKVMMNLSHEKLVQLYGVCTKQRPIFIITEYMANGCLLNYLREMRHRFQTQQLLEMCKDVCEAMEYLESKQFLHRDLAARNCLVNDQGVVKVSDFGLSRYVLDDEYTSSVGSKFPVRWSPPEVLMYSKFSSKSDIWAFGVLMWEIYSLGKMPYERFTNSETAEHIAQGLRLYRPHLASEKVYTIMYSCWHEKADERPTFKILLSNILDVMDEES

- kinase still bound, per cent of control [1]: 83%
- kinase still bound, per cent of control [2]: 100%
- kinase still bound, per cent of control (ANKK1 (human)): 28%
- kinase still bound, per cent of control (BRSK1 (human)): 87%
- kinase still bound, per cent of control (BTK (human)): 100%
- kinase still bound, per cent of control (CAMK1G (human)): 100%
- kinase still bound, per cent of control (CDC42BPA (human)): 100%
- kinase still bound, per cent of control (CDK11B (human)): 100%
- kinase still bound, per cent of control (CSF1R (human)): 71%
- kinase still bound, per cent of control [3]: 100%
- kinase still bound, per cent of control (EIF2AK2 (human)): 100%
- kinase still bound, per cent of control (EPHA4 (human)): 97%
- kinase still bound, per cent of control (EPHB3 (human)): 100%
- kinase still bound, per cent of control (FER (human)): 72%
- kinase still bound, per cent of control [4]: 98%
- kinase still bound, per cent of control (FLT1 (human)): 100%
- kinase still bound, per cent of control (FLT4 (human)): 100%
- kinase still bound, per cent of control (FRK (human)): 100%
- kinase still bound, per cent of control (FYN (human)): 95%
- kinase still bound, per cent of control (HCK (human)): 100%
- kinase still bound, per cent of control (IKBKE (human)): 100%
- kinase still bound, per cent of control [5]: 6.2%
- kinase still bound, per cent of control (KDR (human)): 86%
- kinase still bound, per cent of control (LATS2 (human)): 100%
- kinase still bound, per cent of control (MAP3K11 (human)): 100%
- kinase still bound, per cent of control (MAPK13 (human)): 90%
- kinase still bound, per cent of control (MAPK6 (human)): 70%
- kinase still bound, per cent of control (MAPK9 (human)): 100%
- kinase still bound, per cent of control (NEK5 (human)): 100%
- kinase still bound, per cent of control (NEK6 (human)): 100%
- kinase still bound, per cent of control (NLK (human)): 100%
- kinase still bound, per cent of control (PAK6 (human)): 100%
- kinase still bound, per cent of control (PAK7 (human)): 100%
- kinase still bound, per cent of control (PHKG1 (human)): 98%
- kinase still bound, per cent of control (PKN1 (human)): 100%
- kinase still bound, per cent of control (PRKACA (human)): 100%
- kinase still bound, per cent of control (PRKG2 (human)): 90%
- kinase still bound, per cent of control (PTK2B (human)): 100%
- kinase still bound, per cent of control (SRPK1 (human)): 100%
- kinase still bound, per cent of control (TGFBR1 (human)): 100%
- kinase still bound, per cent of control (ULK1 (human)): 78%
- kinase still bound, per cent of control (ZAP70 (human)): 100%
Structure (SMILES): CN1CCN(c2ccc(C(=O)Nc3ncc4c(n3)N(C)c3ccccc3C(=O)N4C)cc2)CC1

- kinase still bound, per cent of control [1]: 1.8%
- kinase still bound, per cent of control [2]: 99%
- kinase still bound, per cent of control (ANKK1 (human)): 25%
- kinase still bound, per cent of control (BRSK1 (human)): 81%
- kinase still bound, per cent of control (BTK (human)): 82%
- kinase still bound, per cent of control (CAMK1G (human)): 68%
- kinase still bound, per cent of control (CDC42BPA (human)): 98%
- kinase still bound, per cent of control (CDK11B (human)): 85%
- kinase still bound, per cent of control (CSF1R (human)): 54%
- kinase still bound, per cent of control [3]: 63%
- kinase still bound, per cent of control (EIF2AK2 (human)): 69%
- kinase still bound, per cent of control (EPHA4 (human)): 100%
- kinase still bound, per cent of control (EPHB3 (human)): 93%
- kinase still bound, per cent of control (FER (human)): 36%
- kinase still bound, per cent of control [4]: 83%
- kinase still bound, per cent of control (FLT1 (human)): 100%
- kinase still bound, per cent of control (FLT4 (human)): 96%
- kinase still bound, per cent of control (FRK (human)): 13%
- kinase still bound, per cent of control (FYN (human)): 86%
- kinase still bound, per cent of control (HCK (human)): 100%
- kinase still bound, per cent of control (IKBKE (human)): 100%
- kinase still bound, per cent of control [5]: 34%
- kinase still bound, per cent of control (KDR (human)): 90%
- kinase still bound, per cent of control (LATS2 (human)): 100%
- kinase still bound, per cent of control (MAP3K11 (human)): 100%
- kinase still bound, per cent of control (MAPK13 (human)): 71%
- kinase still bound, per cent of control (MAPK6 (human)): 61%
- kinase still bound, per cent of control (MAPK9 (human)): 82%
- kinase still bound, per cent of control (NEK5 (human)): 94%
- kinase still bound, per cent of control (NEK6 (human)): 35%
- kinase still bound, per cent of control (NLK (human)): 100%
- kinase still bound, per cent of control (PAK6 (human)): 74%
- kinase still bound, per cent of control (PAK7 (human)): 71%
- kinase still bound, per cent of control (PHKG1 (human)): 69%
- kinase still bound, per cent of control (PKN1 (human)): 91%
- kinase still bound, per cent of control (PRKACA (human)): 97%
- kinase still bound, per cent of control (PRKG2 (human)): 84%
- kinase still bound, per cent of control (PTK2B (human)): 88%
- kinase still bound, per cent of control (SRPK1 (human)): 100%
- kinase still bound, per cent of control (TGFBR1 (human)): 100%
- kinase still bound, per cent of control (ULK1 (human)): 6.5%
- kinase still bound, per cent of control (ZAP70 (human)): 74%
Structure (SMILES): COc1cc(N2CCN(C)CC2)ccc1Nc1ncc2c(n1)N(C)c1sccc1C(=O)N2C

- kinase still bound, per cent of control [1]: 29%
- kinase still bound, per cent of control [2]: 26%
- kinase still bound, per cent of control (ANKK1 (human)): 82%
- kinase still bound, per cent of control (BRSK1 (human)): 91%
- kinase still bound, per cent of control (BTK (human)): 23%
- kinase still bound, per cent of control (CAMK1G (human)): 100%
- kinase still bound, per cent of control (CDC42BPA (human)): 100%
- kinase still bound, per cent of control (CDK11B (human)): 100%
- kinase still bound, per cent of control (CSF1R (human)): 75%
- kinase still bound, per cent of control [3]: 28%
- kinase still bound, per cent of control (EIF2AK2 (human)): 59%
- kinase still bound, per cent of control (EPHA4 (human)): 100%
- kinase still bound, per cent of control (EPHB3 (human)): 93%
- kinase still bound, per cent of control (FER (human)): 100%
- kinase still bound, per cent of control [4]: 84%
- kinase still bound, per cent of control (FLT1 (human)): 45%
- kinase still bound, per cent of control (FLT4 (human)): 10%
- kinase still bound, per cent of control (FRK (human)): 93%
- kinase still bound, per cent of control (FYN (human)): 98%
- kinase still bound, per cent of control (HCK (human)): 63%
- kinase still bound, per cent of control (IKBKE (human)): 97%
- kinase still bound, per cent of control [5]: 85%
- kinase still bound, per cent of control (KDR (human)): 74%
- kinase still bound, per cent of control (LATS2 (human)): 89%
- kinase still bound, per cent of control (MAP3K11 (human)): 88%
- kinase still bound, per cent of control (MAPK13 (human)): 100%
- kinase still bound, per cent of control (MAPK6 (human)): 100%
- kinase still bound, per cent of control (MAPK9 (human)): 69%
- kinase still bound, per cent of control (NEK5 (human)): 100%
- kinase still bound, per cent of control (NEK6 (human)): 99%
- kinase still bound, per cent of control (NLK (human)): 100%
- kinase still bound, per cent of control (PAK6 (human)): 100%
- kinase still bound, per cent of control (PAK7 (human)): 78%
- kinase still bound, per cent of control (PHKG1 (human)): 46%
- kinase still bound, per cent of control (PKN1 (human)): 69%
- kinase still bound, per cent of control (PRKACA (human)): 100%
- kinase still bound, per cent of control (PRKG2 (human)): 100%
- kinase still bound, per cent of control (PTK2B (human)): 99%
- kinase still bound, per cent of control (SRPK1 (human)): 100%
- kinase still bound, per cent of control (TGFBR1 (human)): 79%
- kinase still bound, per cent of control (ULK1 (human)): 100%
- kinase still bound, per cent of control (ZAP70 (human)): 100%
Structure (SMILES): COc1cc(N2CCN(C)CC2)ccc1Nc1ncc2c(n1)Nc1ccccc1NC2=O
